The source of these data is US6527690B2, “Purification of phenyl ester salts” (priority 2000, dated 2003).

Series [1] can be described thus: Hydrolysis of phenyl ester salt in water at elevated temperature (water crystallization). The class given is physicochemical. The source says:
Phenyl ester salts may also be recrystallized from aqueous solutions. At first glance, the use of water (or an alcohol) as a solvent to replace acetic acid typically used for the purification of crude phenyl ester salts is not an obvious choice. Japanese Patent No. 6-306,042 (1995), for example, reports that compounds related to phenyl ester salts in water or alcohol are subject to hydrolysis or solvolysis at elevated temperatures. Indeed, initial work on water crystallization confirmed that phenyl ester salts, such as Compound (1), did undergo hydrolysis at elevated temperatures. Typical losses of Compound (1) were in the range of 5-7.5% at 90° C.

The nature of series [2]: Measurement of perhydrolysis rate of formulated beads. The note with it: 5 minutes, 10° C. The protocol:
To determine its perhydrolysis rate, the phenyl ester salt was formulated into beads. The beads were typically formulated using a powder or solid phenyl ester salt with a surfactant and a chelating agent. A typical formulation is shown below: […]
The dry materials were weighed, charged into a one-gallon sigma blade mixer and dry mixed for 1 minute. While mixing, water was added and mixing was continued for about 17.5 minutes. The wet mix bulk density was determined by measuring weight/volume. The material was extruded using the Luwa DG-L I at 90 rpm (using a 0.7 mm/I mm, 19.7% open area die). The extrusion was rounded for 1 minute at 1,350 rpm in the Luwa QJ-230 Marumerizer, followed by drying for 20 minutes at 115° C. in a Luwa MDB-400 fluid bed.
Perhydrolysis rate is the percentage of a phenyl ester salt that has undergone perhydrolysis in a specified period of time and at a specific temperature. For the purposes of these examples, perhydrolysis rate is measured at 5 and 30 minutes intervals at 10° C.
The perhydrolysis rate of a phenyl ester salt is measured by adding a weighed quantity of formulated beads comprising the phenyl ester salt, a reference detergent, and sodium […] monohydrate to a synthetic hard water solution in a chilled dissolution vessel (Sotax Model AT7, modified with a emersion chiller). The solution is maintained at 10° C. and stirred at 150 rpm. […]

On to “sodium nonanamidohexanoyloxybenzenesulfonate [Compound (1)]”, for which, in series [1] (90° C., operating at a pH range of 4-6), the Hydrolysis entry is on record as “about 2.2%”. Also, the “Typical losses by hydrolysis” value in series [1] (water crystallization at 90° C., pH not controlled) is 5-7.5%. Further, the results for the “Five minute perhydrolysis rate” value in series [2] (beads prepared from crystallized Compound (1)) and in series [2] (beads prepared from spray-dried Compound (1)) were 20% and 100%, respectively.
